Measurements: article PMC3898417, “A peptide derived from TIMP-3 inhibits multiple angiogenic growth factor receptors and tumour growth and inflammatory arthritis in mice” (Angiogenesis, 2013)
Values belong to the molecule of their own block, whether it stands above or below them. Bridges are numbered along the chain shown (N, C = ends). Where no end group is shown, it is not given here.

Experiments:
[1] = system: recombinant human VEGFR-2; assay: Solid phase binding assay: competition with biotinylated-VEGF165; conditions: plate-coated rhVEGFR-2-Fc; biotinylated-VEGF165 2.4 nM, 1 h room temperature; Fig. 1
Procedure: Ninety six-well plates were coated with the extracellular domain of recombinant human VEGFR-2 fused to the Fc domain of human IgG1 (rhVEGFR-2, R&D Systems, UK) by overnight incubation followed by blocking in 5 % bovine serum albumin/PBS. […] After washing, the biotinylated-VEGF165 was detected with avidin-horse-radish peroxidase and OPD substrate (Sigma-Aldrich, UK) followed by spectrophotometry.

HuDMEC [2] = assay: VEGF165-induced cell proliferation (BrdU); assay type: cell-based, human; conditions: peptide 1 h then 0.5 nM VEGF165 24 h, up to 1 μM, n = 4
Procedure: Human dermal microvascular endothelial cells were serum-starved followed by incubating with p700 peptide for 1 h and then 0.5 nM of VEGF165 for 24 h at 37 °C. Cell proliferation was determined using a BrdU cell proliferation assay kit (Merck Chemicals Ltd, Nottingham, UK).

HuDMEC [3] = assay: VEGF165-induced cell migration (Boyden chamber); assay type: cell-based, human; conditions: 0.5 nM VEGF165, 4.5 h, up to 1 μM, n = 4
Procedure: The ability of the p700 peptide to inhibit VEGF165-induced EC migration was determined using a multi-well Boyden chamber (Neuro Probe, Gaithersburg, USA). Briefly, serum-starved HuDMEC were treated with p700 for 1 h, washed and plated in the upper chamber in EBM-2 medium containing 1 % FCS on an 8 μm fibronectin pre-coated polycarbonate filter (Neuro Probe, Gaithersburg, USA). The cells were then left to migrate across the filter for 4.5 h at 37 °C with media containing 0.5 nM VEGF165 in the presence and absence of inhibitors in the lower chamber. After the incubation, non-migrating cells on the upper side of the membrane were scraped off and the migrated cells were stained with Hema Gurr® rapid staining kit (Merck Chemicals Ltd, Nottingham, UK). Migrated cells were counted using a light microscope at 160× magnification in three random fields per well of three separate wells.

HuDMEC [4] = assay: Tube formation assay on Matrigel; assay type: cell-based, human; conditions: for inhibition of VEGF165-induced HuDMEC tube formation / inhibition of tubule formation in response to VEGF121: 1 μM peptide, n = 4; for inhibition of VEGF165-induced HuDMEC tube formation: 0.5 nM VEGF165, 6 h; for inhibition of bFGF-induced tubule formation: 1.6 nM bFGF
Procedure: Serum-starved HuDMEC were seeded onto Matrigel™ matrix pre-coated 96 well plates (BD Biosciences, Cowley, Oxford, UK) at a density of 1 × 10^4 cells/well in 100 μl EBM-2 medium. Peptides were then added into each corresponding well and incubated for 1 h at 37 °C, followed by stimulated with growth factors, 0.5 nM VEGF165, 1 nM PDGF-BB or 1.6 nM bFGF, to induce tubule development. The tubules formed were examined 6 h after stimulation under a low power (40×) light microscope. Images were captured and analysed by measuring the average tubule length using ImageJ software (National Institutes of Health, USA).

VEGFR-2 [5] = assay: Immunoblotting of VEGF165-induced VEGFR-2 phosphorylation; assay type: cell-based, human; conditions: 1 μM, HuDMEC, western blot; n = 3
Procedure: (§1) Transfected HUVEC or HuDMEC pre-treated with 1 μM test peptides for 1 h, were stimulated with 0.5 nM of VEGF165 for 2, 5 or 10 min. Cells were lysed and phosphorylated proteins detected by western blotting using phospho-specific antibodies to either VEGFR-2, Erk1/2 or PI3K (New England BioLabs, UK). Band intensities were quantified using Bio-Rad Quantity One Analysis software and normalized using U, un-stimulated control, as 0 %; and VEGF165, positive control, as 100 % of protein phosphorylation.

PI3K = assay: Immunoblotting of VEGF165-induced PI3K phosphorylation; assay type: cell-based, human; conditions: 1 μM, HuDMEC, western blot; n = 3
Procedure: as §1

FGFR-1 = assay: Phosphorylation RTK sandwich ELISA; assay type: cell-based, human; conditions: HuDMEC, peptide 1 h, ligand 5 min, n = 3
Procedure: (§2) Serum-deprived HuDMEC were pre-treated with test peptides for 1 h and then stimulated with growth factors (0.5 nM VEGF165, 1.6 nM bFGF, 1 nM PDGF-BB, 1.6 nM hepatocyte growth factor, 100 ng/ml EGF or 100 ng/ml insulin-like growth factor I) for 5 min. Cells were then lysed and phosphorylated proteins detected using (a) a receptor tyrosine kinase array (Human Phospho-Receptor Tyrosine Kinase Array Kit, R&D Systems Ltd.) or (b) sandwich ELISA (Duo-sets, R&D Systems Ltd.) according to the manufacturer’s instructions.

FGFR-2α = assay: Phosphorylation RTK sandwich ELISA; assay type: cell-based, human; conditions: HuDMEC, peptide 1 h, ligand 5 min, n = 3
Procedure: as §2

FGFR-3 = assay: Phosphorylation RTK sandwich ELISA; assay type: cell-based, human; conditions: HuDMEC, peptide 1 h, ligand 5 min, n = 3
Procedure: as §2

FGFR-4 = assay: Phosphorylation RTK sandwich ELISA; assay type: cell-based, human; conditions: HuDMEC, peptide 1 h, ligand 5 min, n = 3
Procedure: as §2

HGFR = assay: Phosphorylation RTK sandwich ELISA; assay type: cell-based, human; conditions: HuDMEC, peptide 1 h, 1.6 nM hepatocyte growth factor 5 min
Procedure: as §2

PDGFR-α = assay: Phosphorylation RTK sandwich ELISA; assay type: cell-based, human; conditions: HuDMEC, peptide 1 h, ligand 5 min, n = 3
Procedure: as §2

VEGFR-1 [6] = assay: Phosphorylation RTK sandwich ELISA; assay type: cell-based, human; conditions: HuDMEC, peptide 1 h, ligand 5 min, n = 3
Procedure: as §2

VEGFR-2 [7] = assay: Phosphorylation RTK sandwich ELISA; assay type: cell-based, human; conditions: HuDMEC, peptide 1 h, ligand 5 min, n = 3
Procedure: as §2

VEGFR-3 = assay: Phosphorylation RTK sandwich ELISA; assay type: cell-based, human; conditions: HuDMEC, peptide 1 h, ligand 5 min, n = 3
Procedure: as §2

[8] = system: insulin-like growth factor 1 receptor; assay: Phosphorylation RTK sandwich ELISA; assay type: cell-based, human; conditions: HuDMEC, peptide 1 h, 100 ng/ml insulin-like growth factor I 5 min
Procedure: as §2

EGFR = assay: Phospho-receptor tyrosine kinase array; assay type: cell-based, human; conditions: HuDMEC, 100 ng/ml EGF 5 min, phospho-RTK array, preliminary screen, data not shown
Procedure: as §2

4T1 mammary tumour = assay: Syngeneic mammary tumour model (4T1); assay type: in vivo, BALB/c mice
Procedure: 10^6 4T1 cells were subcutaneously (s.c.) implanted into the right flank of 5–6 weeks old female BALB/c mice (Charles River Laboratories, Margate, UK) and grown until the tumour size reached 100–350 mm^3. The tumour sizes were measured using callipers as described previously. Once the size of the tumours reached 100–350 mm^3, mice were randomized into control and treatment groups and injected with either vehicle alone (PBS), 0.025, 0.25 or 2.5 mg/kg of p700 peptide in PBS, either directly into the tumour (i.t.) once per week for 2 doses; or intravenously (i.v.) every other day for 5 doses. At the end of the experiment, animals were culled and tumours and normal tissues, including lung and liver, excised and fixed with 10 % neutral buffered formalin for subsequent analysis, which included general histology and quantitative measurement of microvascular density (MVD) and necrosis. For MVD measurement, rabbit-anti-mouse CD31 (AbD Serotech, Kidlington, Oxford, UK) antibody was used and sections were stained according to standard immunohistological staining protocols for formalin-fixed tissue sections. Microvessel density was estimated by measuring the percentage of CD31 positive staining in the tumour sections (15 areas per tumour slide, 7 tumour slides per group) using AnalySIS^^D image analysis software (Olympus, UK). For the necrotic area inside the tumour, tumour slides were stained with H&E. Images were measured at 200× magnification, photographed (15 areas per tumour slide, 7 tumour slides per group) and analysed by AnalySIS^^D image analysis software (Olympus, UK). Normal tissues including lung and liver were stained with H&E to study tumour metastasis. Total number of metastases per mouse was determined as the number of metastatic foci on five sections for each animal (n = 7). Incidence of metastasis was calculated as the percentage of mice with one or more metastatic nodules in the tissues. Metastasis severity was scored as follows: […], minimal (score 1 = ≤ 4 metastatic nodules), medium (score 2 = 5–7 metastatic nodules) or extensive involvement (score 3 = ≥ 8 metastatic nodules). Each nodule contained ≥5 nuclei.

[9] = system: primary human synovial cells (SC); assay: In vitro synovial cell invasion assay (GFR-Matrigel); assay type: cell-based; conditions: rheumatoid arthritis synovial cells, peptide 1 h, 100 ng/ml PDGF-BB 22 h; n = 3
Procedure: Synovial cell invasion was determined using a GFR-Matrigel™ invasion assay kit (BD Biosciences, USA). Serum-starved SC were treated with peptide for 1 h, followed by stimulation with 100 ng/ml PDGF-BB at 37 °C for 22 h. After incubation, non-invading cells on the upper side of the chamber were removed and the invaded cells on the lower side of the membrane were fixed with methanol and stained with Hema Gurr® rapid staining solution (Merck Chemicals, Ltd.). Cells were counted using a light microscope at 160× magnification in 3 random fields per well of 3 separate wells.

[10] = system: collagen-induced arthritis; assay: Collagen-induced-arthritis mouse (CIA) model; assay type: in vivo, DBA-1 mice; conditions: 2.5 mg/kg i.v. every 2 days
HuDMEC [11] = assay: Toxicity to HuDMEC by propidium iodide staining; assay type: cell-based, human; conditions: data not shown
FGFR1 = conditions: cited from earlier work
Text: (§3) TIMP-3 appears to bind VEGFR-2 specifically, with no inhibition of the closely related VEGFR-1, FGFR1 or PDGFR-β receptors.

PDGFR-β = conditions: cited from earlier work
Text: as §3

VEGFR-1 [12] = conditions: cited from earlier work
Text: as §3

ability to inhibit the binding of VEGF165 to rhVEGFR-2 [1]: not
Molecule: GLKLEVNKYQYLLTGR [p323]

ability to inhibit the binding of VEGF165 to rhVEGFR-2 [1]: able to inhibit | inhibition of insulin-like growth factor 1 receptor phosphorylation [8]: no inhibition | inhibition of EGFR (EGFR): not inhibited
Molecule: KIKSCYYLPCFVTSKN (disulfide 5-10 (inferred)) [p700]
maximum inhibition of VEGF165-induced cell proliferation (HuDMEC [2]): 40% | maximum inhibition of VEGF165-induced migration (HuDMEC [3]): 67% | inhibition of VEGF165-induced HuDMEC tube formation (HuDMEC [4]): > 99% | inhibition of tubule formation in response to VEGF121 (HuDMEC [4]): > 97% | inhibition of PDGF-BB-induced tubule formation (HuDMEC [4]; HuDMEC, 1 nM PDGF-BB, 6 h, n = 3, Fig. 3b): inhibited | inhibition of bFGF-induced tubule formation (HuDMEC [4]; HuDMEC, 6 h, n = 3, Fig. 3b): inhibited | effect on tubule formation in the absence of VEGF (HuDMEC [4]; relative to untreated cells, data not shown): no effect | inhibition of VEGF165-induced VEGFR-2 phosphorylation (VEGFR-2 [5]): approximately 50% | inhibition of VEGF165-induced phosphorylation of PI3K (PI3K): approximately 50% | inhibition of FGFR-1 phosphorylation (FGFR-1): significant inhibition | inhibition of FGFR-2α phosphorylation (FGFR-2α): significant inhibition | inhibition of FGFR-3 phosphorylation (FGFR-3): significant inhibition | inhibition of FGFR-4 phosphorylation (FGFR-4): significant inhibition | inhibition of HGFR phosphorylation (HGFR): no inhibition | inhibition of PDGFR-α phosphorylation (PDGFR-α): significant inhibition | inhibition of VEGFR-1 phosphorylation (VEGFR-1 [6]): significant inhibition | inhibition of VEGFR-2 phosphorylation (VEGFR-2 [7]): significant inhibition | inhibition of VEGFR-3 phosphorylation (VEGFR-3): significant inhibition | increased tumour necrosis (4T1 mammary tumour; H&E sections, treated group vs control): failed to reach significance | reduction in microvascular density (anti-CD31 staining) (4T1 mammary tumour; both treatment groups (i.t. and i.v.) compared to control groups, n = 7 tumours/group): approximately 50% | effect on tumour growth, intravenous dosing (4T1 mammary tumour; i.v. every 2 days, 0.25 mg/kg or above, 4T1 s.c. in BALB/c mice, n = 7): almost totally abolished tumour growth | decreased metastases (4T1 mammary tumour; lung and liver H&E sections, treated group vs control): failed to reach significance | effect on tumour growth, intra-tumour dosing (4T1 mammary tumour; weekly i.t. dose of 0.25 mg/kg, 4T1 s.c. in BALB/c mice, n = 7): almost totally abolished tumour growth | inhibition of PDGF-BB induced synovial cell invasion [9]: approximately 40% | CIA progression ([10]; 7 doses, vehicle n = 8, p700 n = 10): significantly inhibited | clinical presentation of disease (arthritis score) ([10]; p < 0.001 2-way ANOVA): reduced | hind paw inflammation (hind paw volume) ([10]; plethysmometry, p < 0.05 2-way ANOVA, AUC NS): reduced

Molecule: fibrinopeptide A (ADSGEGDFLAEGGGVR; Fibrinopeptide A; UniProt P02671 20-35, looked up) [control peptide, 16 amino acid biologically inert control peptide, purchased from Bachem, reference compound]
maximum inhibition of VEGF165-induced cell proliferation (HuDMEC [2]): no significant effect | maximum inhibition of VEGF165-induced migration (HuDMEC [3]): no significant effect | inhibition of VEGF165-induced HuDMEC tube formation (HuDMEC [4]): no significant effect | inhibition of tubule formation in response to VEGF121 (HuDMEC [4]): no significant effect | inhibition of VEGF165-induced VEGFR-2 phosphorylation (VEGFR-2 [5]): no significant effect | inhibition of VEGF165-induced phosphorylation of PI3K (PI3K): no significant effect | concentration showing some toxicity to HuDMEC (HuDMEC [11]): ≥ 10 µM

ability to inhibit the binding of VEGF165 to rhVEGFR-2 [1]: able to inhibit
B1: full length TIMP-3: recombinant human tissue inhibitor of metalloproteinases-3, His-tagged, from High Five insect cells (protein)
chain: CTCSPSHPQDAFCNSDIVIRAKVVGKKLVKEGPFGTLVYTIKQMKMYRGFTKMPHVQYIHTEASESLCGLKLEVNKYQYLLTGRVYDGKMYTGLCNFVERWDQLTLSQRKGLNYRYHLGCNCKIKSCYYLPCFVTSKNECLWTDMLSNFGYPGYQSKHYACIRQKGGYCSWYRGWAPPDKSIINATDP
modifications: left off: His6, C-terminal, state not stated
inhibition of bFGF-induced tubule formation (HuDMEC [4]; HuDMEC, 6 h, n = 3, Fig. 3b): some inhibition | inhibition of VEGF165-induced VEGFR-2 phosphorylation (VEGFR-2 [5]): 45% | inhibition of FGFR1 (FGFR1): no inhibition | inhibition of PDGFR-β (PDGFR-β): no inhibition | inhibition of VEGFR-1 (VEGFR-1 [12]): no inhibition
